Reference: patent US20240315989A1 (priority 2021, published 2024)

Experiments:
[1] = test system: COVID-19 (SARS-CoV-2 infection)
[2] = test system: COVID-19; settings: cited from earlier work
[3] = test system: HEK293T cell lines expressing ACE2 and TMPRSS2; settings: FIG. 27; cited from earlier work
[4] = test system: SARS-CoV-2 infection; test: Retrospective cohort (BJC Healthcare): antidepressant exposure and ED or hospital encounter within 30 days; format: in vivo, human; settings: share of exposed outpatients with an encounter after a positive SARS-CoV-2 test
[5] = Source text: All serious and non-serious adverse events were reported to study personnel as per local regulatory requirements. Reportable adverse events included serious adverse events, adverse events resulting in study medication discontinuation, and adverse events assessed as possibly related to study medication.
Because many patients who would ordinarily have been hospitalized were prevented from admission due to hospital over-capacity during peak waves, the composite endpoint addresses both hospitalization and a proxy for hospitalization, retention in a COVID-19 emergency hospital setting. This region of Brazil implemented hospital-like services in the emergency settings with 50-80 bed units providing services including multiday stays, oxygenation, and mechanical ventilation. […] Key secondary outcomes include viral clearance, time to clinical improvement, number of days with respiratory symptoms, time to hospitalization for any cause or due to COVID-19 progression, all-cause mortality and time to death from any causes, WHO clinical worsening scale score, days in hospital and on ventilator and adverse events, adverse reactions to the study medications, and the proportion of participants who are non-adherent with the study drugs.
The TOGETHER trial is the largest placebo-controlled trial of COVID-19 interventions in the world. It currently evaluates drugs for pre-hospitalization.

[6] = cited from earlier work
[7] = cited from earlier work; remark: listed apart in the source
[8] = Together, N = 741, MedDRA body system

COCCCC/C(=N\OCCN)c1ccc(C(F)(F)F)cc1.O=C(O)/C=C\C(=O)O [fluvoxamine, 5-methoxy-4′-(trifluoromethyl)valerophenone-(E)-O-(2-aminoethyl)oxime maleate (1:1)]
Clinical status on 7-point scale, difference between group means vs placebo [1]: −0.22 | Most severe baseline symptom change score, difference between group means vs placebo [1]: 0.3 | 30-d post trial observation events, % ([1]; 30 days after day 15): (1.3) % | Most severe baseline symptom change score (difference between baseline and final rating) ([1]; day 0 to day 15, 0-10 scale): −5.6 | 30-d post trial observation events, absolute difference vs placebo ([1]; difference in proportions): −0.1 | Absolute difference vs placebo, 7-point scale 0 (none) ([1]; difference in proportions): 8.3 | Absolute difference vs placebo, 7-point scale 1 ([1]; difference in proportions): −2.8 | Absolute difference vs placebo, 7-point scale 3 ([1]; difference in proportions): −4.2 | Absolute difference vs placebo, 7-point scale 5 ([1]; difference in proportions): −1.4 | Absolute difference vs placebo, 7-point scale any nonzero value ([1]; difference in proportions): −8.3 | Clinical status on 7-point scale, mean (SD) ([1]; n = 80): 0 | WHO scale, 0-1 = uninfected or ambulatory, % ([1]; n = 80): (100%) | WHO scale, 2 = limitation of activities, % ([1]; n = 80): (0%) | WHO scale, 2 = limitation of activities, No ([1]; n = 80): 0 | WHO scale, 3 = hospitalized, no O2 needed, % ([1]; n = 80): (0%) | WHO scale, 3 = hospitalized, no O2 needed, No ([1]; n = 80): 0 | WHO scale, 4 = hospitalized, O2 needed, % ([1]; n = 80): (0%) | WHO scale, 4 = hospitalized, O2 needed, No ([1]; n = 80): 0 | WHO scale, 5 = non-invasive vent or high-flow O2, % ([1]; n = 80): (0%) | WHO scale, 5 = non-invasive vent or high-flow O2, No ([1]; n = 80): 0 | WHO scale, 6 = ventilator needed, % ([1]; n = 80): (0%) | WHO scale, 6 = ventilator needed, No ([1]; n = 80): 0 | WHO scale, 7 = ventilator + additional organ support, % ([1]; n = 80): (0%) | WHO scale, 7 = ventilator + additional organ support, No ([1]; n = 80): 0 | WHO scale, 8 = Death, % ([1]; n = 80): (0%) | WHO scale, total participants with values >1, % ([1]; n = 80): (0%) | WHO scale, total participants with values >1, No ([1]; n = 80): 0 | 7-point scale, 1 = O2 sat <92% but no supplemental O2, % ([1]; n = 80, 15 days): (0%) | 7-point scale, 1 = O2 sat <92% but no supplemental O2, No ([1]; n = 80, 15 days): 0 | 7-point scale, 2 = Above + supplemental O2 needed, % ([1]; n = 80, 15 days): (0%) | 7-point scale, 2 = Above + supplemental O2 needed, No ([1]; n = 80, 15 days): 0 | 7-point scale, 3 = Above + hospitalization needed, % ([1]; n = 80, 15 days): (0%) | 7-point scale, 3 = Above + hospitalization needed, No ([1]; n = 80, 15 days): 0 | 7-point scale, 4 = Above + ventilator needed (<3 days), % ([1]; n = 80, 15 days): (0%) | 7-point scale, 4 = Above + ventilator needed (<3 days), No ([1]; n = 80, 15 days): 0 | 7-point scale, 5 = Above + ventilator needed (≥3 days), % ([1]; n = 80, 15 days): (0%) | 7-point scale, 5 = Above + ventilator needed (≥3 days), No ([1]; n = 80, 15 days): 0 | 7-point scale, 6 = Death, % ([1]; n = 80, 15 days): (0%) | 7-point scale, total participants with values >0 (any nonzero value), No ([1]; n = 80, 15 days): 0 | 7-point scale, total participants with values >0, % ([1]; n = 80, 15 days): (0%) | 30-d post trial observation events (emergency department visit, hospitalization, or both), No. ([1]; of 80, 30 days after day 15): 1 | HR for death vs matched controls ([2]; 95% CI 0.36-0.94): 0.58 | Patients who died, % ([2]; ICU patients, 100 mg three times daily): 58.8% | Reduced risk of death vs matched controls ([2]; in vivo): 42% | Patients who died, No. ([2]; of 51 ICU patients, 100 mg three times daily): 30 | HEK293T-ACE2-TMPRSS2 cell IC50 [3]: 4.579 µg/mL | ED or hospital encounter within 30 days, % [4]: 21.1% | Treatment emergent adverse event Grade 1, % ([5]; TOGETHER, fluvoxamine group): (3%) | Treatment emergent adverse event Grade 1, n/N ([5]; TOGETHER, fluvoxamine group): 20/741 | Treatment emergent adverse event Grade 2, % ([5]; TOGETHER, fluvoxamine group): (10%) | Treatment emergent adverse event Grade 2, n/N ([5]; TOGETHER, fluvoxamine group): 72/741 | Treatment emergent adverse event Grade 3, % ([5]; TOGETHER, fluvoxamine group): (5%) | Treatment emergent adverse event Grade 3, n/N ([5]; TOGETHER, fluvoxamine group): 38/741 | Treatment emergent adverse event Grade 4, % ([5]; TOGETHER, fluvoxamine group): (3%) | Treatment emergent adverse event Grade 4, n/N ([5]; TOGETHER, fluvoxamine group): 21/741 | Treatment emergent adverse event Grade 5, % ([5]; TOGETHER, fluvoxamine group): (2%) | Treatment emergent adverse event Grade 5, n/N ([5]; TOGETHER, fluvoxamine group): 18/741 | Cardiac disorders, % of AEs [5, 8]: (0.6%) | Cardiac disorders, number of AEs [5, 8]: 1 | Ear and labyrinth disorders, % of AEs [5, 8]: (0.6%) | Ear and labyrinth disorders, number of AEs [5, 8]: 1 | Gastrointestinal disorders, % of AEs [5, 8]: (9.2%) | Gastrointestinal disorders, number of AEs [5, 8]: 16 | Hepatobiliary disorders, % of AEs [5, 8]: (0%) | Hepatobiliary disorders, number of AEs [5, 8]: 0 | Infections and infestations, % of AEs [5, 8]: (49%) | Infections and infestations, number of AEs [5, 8]: 85 | Metabolism and nutrition disorders, % of AEs [5, 8]: (2.3%) | Metabolism and nutrition disorders, number of AEs [5, 8]: 4 | Musculoskeletal and connective tissue disorders, % of AEs [5, 8]: (2.3%) | Musculoskeletal and connective tissue disorders, number of AEs [5, 8]: 4 | Nervous system disorders, % of AEs [5, 8]: (1.7%) | Nervous system disorders, number of AEs [5, 8]: 3 | Psychiatric disorders, % of AEs [5, 8]: (2.9%) | Psychiatric disorders, number of AEs [5, 8]: 5 | Renal and urinary disorders, % of AEs [5, 8]: (0.6%) | Renal and urinary disorders, number of AEs [5, 8]: 1 | Reproductive system and breast disorders, % of AEs [5, 8]: (0.6%) | Reproductive system and breast disorders, number of AEs [5, 8]: 1 | Respiratory, thoracic and mediastinal disorders, % of AEs [5, 8]: (6.3%) | Respiratory, thoracic and mediastinal disorders, number of AEs [5, 8]: 11 | Skin and subcutaneous tissue disorders, % of AEs [5, 8]: (0%) | Skin and subcutaneous tissue disorders, number of AEs [5, 8]: 0 | Vascular disorders, % of AEs [5, 8]: (1.1%) | Vascular disorders, number of AEs [5, 8]: 2 | N individual AEs ([5]; Together, N = 741 participants): 174 | Participants who stopped owing to issues of tolerability, No. ([5]; of 741): 84 | Nausea, % of patients ([6]; 35,368 people, 66 studies): 15.7% | Another serious adverse event (suicide attempt, depression, death, accidental injury) ([6]; in vivo): < 0.4% | Serious adverse events requiring hospitalization ([6]; in vivo): 1.6% | Serious adverse events, % of people ([6]; taking the medication for a psychiatric disorder): approximately 2.0% | volume of distribution [V/F] ([7]; one-compartment model): 928 L | Free fraction in plasma ([7]; unbound to plasma proteins): 20%
